Test results reported in US20020173468A1, “MODIFIED CYTOSTATIC AGENTS” (priority 1996, published 2002).
Counter-ions that a name gives are not always drawn.

Key:
Format in all cases: cell-based
[1] = tested on: SW 480 human colonic tumour cell line; test: Growth inhibition test (MTT) for cytotoxic properties, SW 480; conditions: SW 480 cells
Method: (§1) 1. Growth Inhibition Test for the Determination of Cytotoxic Properties
(§2) They were then trypsinized and taken up in RPMI plus 10% FCS to give a cell count of 50,000 cells/ml. 100 μl of cell suspension/well were added to a 96 microwell plate and incubated for 1 day at 37° C. in a CO2 incubator. A further 100 μl of RPMI medium and 1 μl of DMSO were then added with the test substances. The growth was checked after day 3 and day 6. To do this, 40 μl of MTT solution (3-(4,5-dimethylthiazol-2-yl)-2,5-diphenyl-tetrazolin bromide) were added to each microwell at a starting concentration of 5 mg/ml of H2O. Incubation was carried out at 37° C. for 5 hours in the CO2 incubator. The medium was then aspirated and 100 μl of i-propanol/well were added. After shaking for 30 min with 100 μl of H2O, the extinction was measured at 540 nm using a Titertek Multiskan MCC/340 (flow).
(§3) The cytotoxic action is indicated in Table 1 as an IC50 value in each case for the SW 480 and HT 29 and B16F10 cell lines: […]

[2] = tested on: HT 29 human colonic tumour cell line; test: Growth inhibition test (MTT) for cytotoxic properties, HT 29; conditions: HT 29 cells
Method: as §1, §2, §3

[3] = tested on: B16F10 mouse melanoma cell line; test: Growth inhibition test (MTT) for cytotoxic properties, B16F10; conditions: B16F10 cells
Method: as §1, §2, §3

Compound	IC50 [1]	IC50 [2]	IC50 [3]
CCC1(OC(=O)C(CC(C)C)NC(=O)C(CCCCN)NC(=S)Nc2ccc(O)cc2)C(=O)OCc2c1cc1n(c2=O)Cc2cc3ccccc3nc2-1 (stereo not drawn) [4.2), 20-O-[N^α-(4-Hydroxy-phenylamino-thiocarbonyl)-lysyl-leucyl]-camptothecin, hydrochloride]	70 nM	60 nM	300 nM
CCC1(OC(=O)[C@H](CC(C)C)NC(=O)[C@H](CCCCN)NC(=S)Nc2ccc(O)cc2)C(=O)OCc2c1cc1n(c2=O)Cc2cc3cc4c(cc3nc2-1)OCO4 (stereo partly drawn) [6), 10,11-(Methylenedioxy)-20-O-[N^α-(4-hydroxy-phenylaminothio-carbonyl)-lysyl-leucyl]-camptothecin, hydrochloride]	5 nM	3 nM	15 nM
COc1cccc2c1C(=O)c1c(O)c3c(c(O)c1C2=O)C[C@@](O)(C(=O)CO)C[C@@H]3O[C@H]1C[C@H](NC(=O)C(C)NC(=O)C(CCCCN)NC(=S)Nc2ccc(O)cc2)[C@H](O)[C@H](C)O1 (stereo partly drawn) [3), N-[N^α-(4-Hydroxy-phenylamino-thiocarbonyl)-lysyl-alanyl]-doxorubicin]	3000 nM	2000 nM	1000 nM
NCCCC(NC(=S)Nc1ccc(O)cc1)C(=O)NC1C=CCC2CN(c3c(F)cc4c(=O)c(C(=O)O)cn(C5CC5)c4c3Cl)CC21 (racemic) [2.6), N-[N^α-(4-Hydroxy-phenylamino-thiocarbonyl)-ornithyl]-quinolone-a, hydrochloride]	200 nM	300 nM	60 nM
O=C(O)c1cn(C2CC2)c2c(Cl)c(N3CC4CC=CC(NC(=O)C(CCCCNC(=S)Nc5ccc(O)cc5)NC(=S)Nc5ccc(O)cc5)C4C3)c(F)cc2c1=O (racemic) [2.5), N-[N^α,N^ε-bis-(4-Hydroxy-phenylamino-thiocarbonyl)-D-lysyl]-quinolone-a]	200000 nM	> 200000 nM	200000 nM
CC[C@@]1(OC(=O)[C@@H](NC(=O)[C@H](CCCCN)NC(=S)Nc2ccccc2)C(C)C)C(=O)OCc2c1cc1n(c2=O)Cc2cc3ccccc3nc2-1 [4.7), 20-O-[N^α-(Phenylamino-thiocarbonyl)-lysyl-valyl]-camptothecin, hydrochloride]	100 nM	60 nM	300 nM
CCC1(OC(=O)C(Cc2ccccc2)NC(=O)C(CCCCN)NC(=S)Nc2ccc(O)cc2)C(=O)OCc2c1cc1n(c2=O)Cc2cc3ccccc3nc2-1 (stereo not drawn) [4.3), 20-O-[N^α-(4-Hydroxy-phenylamino-thiocarbonyl)-lysyl-phenyl-alanyl]-camptothecin]	20 nM	20 nM	100 nM
CC[C@@]1(OC(=O)C(C)NC(=O)C(CCCCN)NC(=S)Nc2ccc(O)cc2)C(=O)OCc2c1cc1n(c2=O)Cc2cc3ccccc3nc2-1 (stereo partly drawn) [4.1), 20-O-[N^α-(4-Hydroxy-phenylamino-thiocarbonyl)-lysyl-alanyl]-camptothecin]	10 nM	20 nM	100 nM
CCC1(OC(=O)[C@@H](C)NC(=O)C(CCCCNC(=S)Nc2ccc(O)cc2)NC(=S)Nc2ccc(O)cc2)C(=O)OCc2c1cc1n(c2=O)Cc2cc3ccccc3nc2-1 (stereo partly drawn) [4.10), 20-O-[N^α,N^ε-bis-(4-Hydroxy-phenylamino-thiocarbonyl)-lysyl-D-alanyl]-camptothecin]	20 nM	10 nM	200 nM
CCC1(OC(=O)C(NC(=O)C(CCCCN)NC(=S)Nc2ccc([N+](=O)[O-])cc2)C(C)C)C(=O)OCc2c1cc1n(c2=O)Cc2cc3ccccc3nc2-1 (stereo not drawn) [4.16), 20-O-[N^α-(4-Nitro-phenylamino-thiocarbonyl)-lysyl-valyl]-camptothecin, hydrochloride]	150 nM	120 nM	600 nM
CC[C@@]1(OC(=O)C(CC(=O)O)NC(=O)C(CCCCNC(=S)Nc2ccc(O)cc2)NC(=S)Nc2ccc(O)cc2)C(=O)OCc2c1cc1n(c2=O)Cc2cc3ccccc3nc2-1 (stereo partly drawn) [4.22), 20-O-[N^α,N^ε-bis-(4-Hydroxy-phenylamino-thiocarbonyl)-lysyl-aspartyl]-camptothecin, sodium salt]	40 nM	40 nM	100 nM
CCC1(OC(=O)C(NC(=O)C(CCCCNC(=S)Nc2ccc(O)cc2)NC(=S)Nc2ccc(O)cc2)C(C)C)C(=O)OCc2c1cc1n(c2=O)Cc2cc3ccccc3nc2-1 (stereo not drawn) [4.21), 20-O-{[N^α-N^ε-bis-(4-Hydroxy-phenylamino-thiocarbonyl)]-lysyl-valyl}-camptothecin, hydrochloride]	700 nM	300 nM	3000 nM
CC[C@@]1(OC(=O)C(NC(=O)C(CCCCN)NC(=S)Nc2ccc(C(=O)O)cc2)C(C)C)C(=O)OCc2c1cc1n(c2=O)Cc2cc3ccccc3nc2-1 (stereo partly drawn) [4.5), 20-O-[N^α-(4-Carboxy-phenylamino-thiocarbonyl)-lysyl-valyl]-camptothecin, hydrochloride]	300 nM	200 nM	800 nM
NC(CCCCNC(=S)Nc1ccc(O)cc1)C(=O)Nc1ccc2c(c1)CN1C(=O)c3ccccc3C1=N2 (centres unmarked) [1.3), N-[N^ε-(4-Hydroxy-phenylamino-thiocarbonyl)-lysyl]-batracylin]	45000 nM	70000 nM	–
NCCCC[C@H](NC(=S)Nc1ccc(O)cc1)C(=O)Nc1ccc2c(c1)CN1C(=O)c3ccccc3C1=N2 [1.2), N-[N^α-(4-Hydroxy-phenylamino-thiocarbonyl)-lysyl]-batracylin]	25000 nM	40000 nM	–
CC(NC(=S)Nc1ccc(O)cc1)C(=O)NC1C=CCC2CN(c3c(F)cc4c(=O)c(C(=O)O)cn(C5CC5)c4c3Cl)CC21 (racemic) [2.1), N-[N-(4-Hydroxy-phenylamino-thiocarbonyl)-alanyl]-quinolone-a]	20000 nM	9000 nM	9000 nM
CN(C(=S)NC(CCCCN)C(=O)NC1C=CCC2CN(c3c(F)cc4c(=O)c(C(=O)O)cn(C5CC5)c4c3Cl)CC21)c1ccccc1 (racemic) [2.10), N-[N^α-(Phenyl-methyl-amino-thiocarbonyl)-lysyl]-quinolone-a]	2000 nM	2000 nM	400 nM
CCC1(OC(=O)C(CC(C)C)NC(=O)C(CCCCN)NC(=S)Nc2ccc(O)cc2)C(=O)OCc2c1cc1n(c2=O)Cc2cc3ccccc3nc2-1 (stereo not drawn) [4.20), 20-O-[N^α-(4-Hydroxy-phenylamino-thiocarbonyl)-lysyl-leucyl]-camptothecin, hydrochloride]	70 nM	60 nM	300 nM
CCC1(OC(=O)C(CO)NC(=O)C(CCCCNC(=S)Nc2ccc(O)cc2)NC(=S)Nc2ccc(O)cc2)C(=O)OCc2c1cc1n(c2=O)Cc2cc3ccccc3nc2-1 (stereo not drawn) [4.23), 20-O-[N^α,N^ε-bis-(4-Hydroxy-phenylamino-thiocarbonyl)-lysyl-seryl]-camptothecin]	80 nM	70 nM	150 nM
CCC1(OC(=O)[C@H](Cc2ccccc2)NC(=O)[C@H](CCCCNC(=S)Nc2ccc(O)cc2)NC(=S)Nc2ccc(O)cc2)C(=O)OCc2c1cc1n(c2=O)Cc2cc3ccccc3nc2-1 (stereo partly drawn) [4.11), 20-O-[N^α,N^ε-bis-(4-Hydroxy-phenylamino-thiocarbonyl)-lysyl-phenylalanyl]-camptothecin]	60 nM	30 nM	200 nM
CC(NC(=O)C(CO)NC(=S)Nc1ccc(O)cc1)C(=O)Nc1ccc2c(c1)CN1C(=O)c3ccccc3C1=N2 [1.5), N-[N-(4-Hydroxy-phenylamino-thiocarbonyl)-seryl-D-alanyl]-batracylin]	250000 nM	400000 nM	–
CCC1(OC(=O)C(NC(=O)C(CCCCN)NC(=S)Nc2cccc([N+](=O)[O-])c2)C(C)C)C(=O)OCc2c1cc1n(c2=O)Cc2cc3ccccc3nc2-1 (stereo not drawn) [4.17), 20-O-[N^α-(3-Nitro-phenylamino-thiocarbonyl)-lysyl-valyl]-camptothecin, hydrochloride]	300 nM	170 nM	800 nM
CCC1(OC(=O)C(NC(=O)C(CCCCN)NC(=S)N(C)c2ccccc2)C(C)C)C(=O)OCc2c1cc1n(c2=O)Cc2cc3ccccc3nc2-1 (stereo not drawn) [4.8), 20-O-[N^α-(Phenyl-methyl-amino-thiocarbonyl)-lysyl-valyl]-camptothecin, hydrochloride]	300 nM	150 nM	800 nM
CCC1(OC(=O)C(NC(=O)C(Cc2c[nH]cn2)NC(=S)Nc2ccc(O)cc2)C(C)C)C(=O)OCc2c1cc1n(c2=O)Cc2cc3ccccc3nc2-1 (stereo not drawn) [4.19), 20-O-[N^α-(4-Hydroxy-phenylamino-thiocarbonyl)-histidyl-valyl]-camptothecin, hydrochloride]	80 nM	40 nM	400 nM
CC[C@@]1(OC(=O)[C@@H](NC(=O)[C@H](CCCCN)NC(=S)Nc2cccc(O)c2)C(C)C)C(=O)OCc2c1cc1n(c2=O)Cc2cc3ccccc3nc2-1 [4.12), 20-O-[N^α-(3-Hydroxy-phenylamino-thiocarbonyl)-lysyl-valyl]-camptothecin, hydrochloride]	40 nM	30 nM	200 nM
CC(NC(=O)C(CCC(=O)O)NC(=S)Nc1ccc(O)cc1)C(=O)Nc1ccc2nc3n(c(=O)c2c1)Cc1ccccc1-3 [1.6), N-[N-(4-Hydroxy-phenylamino-thiocarbonyl)-glutamyl-D-alanyl]-batracylin]	550000 nM	800000 nM	–
